What was measured:
[1] = biological target: T1, RBL-1 Cell 5-Lipoxygenase (Rattus norvegicus, UniProt P12527); test: Procedure II: 5-lipoxygenase inhibition in disrupted RBL-1 cells (supernatant as enzyme source); assay type: biochemical; details: for IC50: read-out: IC50 5-LO (Procedure II)
T1 construct: the supernatant was saved as the source of enzymes; endogenous in cells; host or cells: RBL-1 (rat basophilic leukemia cells), 10,000×g supernatant of homogenate
T1 sequence (P12527 1-673): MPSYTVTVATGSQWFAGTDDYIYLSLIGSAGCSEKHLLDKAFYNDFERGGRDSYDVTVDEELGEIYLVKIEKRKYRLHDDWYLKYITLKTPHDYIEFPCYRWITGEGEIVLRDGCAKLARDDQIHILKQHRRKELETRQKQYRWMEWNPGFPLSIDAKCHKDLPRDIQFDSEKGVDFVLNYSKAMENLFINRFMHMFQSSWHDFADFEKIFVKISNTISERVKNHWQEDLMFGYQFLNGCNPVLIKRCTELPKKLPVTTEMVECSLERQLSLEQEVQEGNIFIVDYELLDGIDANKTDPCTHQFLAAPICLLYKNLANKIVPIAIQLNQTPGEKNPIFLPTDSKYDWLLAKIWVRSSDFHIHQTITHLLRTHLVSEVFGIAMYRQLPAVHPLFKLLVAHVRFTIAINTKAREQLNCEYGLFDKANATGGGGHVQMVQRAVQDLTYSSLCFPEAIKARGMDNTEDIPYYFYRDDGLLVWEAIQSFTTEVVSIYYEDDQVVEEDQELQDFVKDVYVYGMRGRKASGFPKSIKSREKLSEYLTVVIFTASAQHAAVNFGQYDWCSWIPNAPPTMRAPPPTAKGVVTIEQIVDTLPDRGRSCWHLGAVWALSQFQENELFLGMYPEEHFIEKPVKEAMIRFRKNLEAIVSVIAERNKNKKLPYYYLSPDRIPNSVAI
Description: RBL-1 Cell 5-Lipoxygenase and Cyclooxygenase
Rat basophilic leukemia cells (RBL-1; 5×10^7 viable cells/mL) were disrupted by homogenization on ice (four 20 sec bursts) with a Brinkman polytron. Complete cell breakage was verified microscopically. The homogenate was then centrifuged at 10,000×g for 48 minutes at 4° C. The pellet was discarded and the supernatant was saved as the source of enzymes. The supernatant was pre-incubated for five minutes at 37° C. in the presence of 2 mM of CaCl2 and compound or vehicle (1% DMSO). The conversion of AA into 5-LO products was initiated by adding 10 μL (50 μCi) of 1-^14 C-AA to each tube and incubated at 37° C. for 20 minutes. The reaction was stopped by adjusting the pH of each sample to 3 to 3.5 with 2M formic acid. Samples were extracted with three volumes of chloroform to isolate the products of 5-LO formed during the reaction. Fractions were dried under nitrogen, then resuspended in 40 μL of chloroform and spotted onto silica gel HL plates. The plates were developed in A-9 solvent. The dried plates were analyzed using a Bioscan Imaging TLC scanner to determine the percentage of radiolabelled AA converted to 5-HETE in each sample.
(§1) In the following tables, the superscripts indicate the number of experiments and, unless otherwise stated, the dose at which % inhibition is reported is 3 MPK.

[2] = biological target: T2, 5-LO in intact RBL-1 cells (Rattus norvegicus, UniProt P12527); test: Procedure III: inhibition of 5-LO in intact RBL-1 cells; assay type: cell-based
T2 construct: 5-LO and CO in intact RBL-1 cells; endogenous in cells; host or cells: RBL-1 (rat basophilic leukemia cells), intact
T2 sequence (P12527 1-673): T1 sequence (P12527 1-673)
Description: (§2) The ability to inhibit 5-LO and CO in intact RBL-1 cells was also evaluated. RBL-1 cells were maintained in culture in minimal essential medium (Bio*Whittaker, Walkersville, Md.), containing 12.5% fetal calf serum, 10 mg/mL streptomycin, 10 I.U./mL penicillin G, […] gentamycin and 2 mM L-glutamine (Bio*Whittaker, Walkersville, Md.). Cells were collected by centrifugation, washed once in HBSS, and resuspended at a concentration of 1×10^5 cells/mL. Cells were incubated in the presence of vehicle or drug then centrifuged at 800×g for 10 minutes at 4° C. The supernatant was removed by aspiration and the cells were resuspended in 0.5 mL of HBSS. The reaction was started by the addition of 20 μg/mL of calcium ionophore A-23187 (mixed calcium and magnesium salts, Calbiochem, La Jolla, Calif.) and allowed to proceed for 15 minutes, then stopped by plunging the tubes into a slush ice bath. The conversion of AA to 5-LO products was initiated by the addition of 10 μL (50 uCi) of 1-^14 C-AA. Products were isolated by acidification and extraction, followed by thin layer chromatography analysis as described above. Radioactive areas corresponding to authentic 5-LO and CO products were quantitated by the Bioscan 2000 Imaging System.
as §1

CO in intact RBL-1 cells = biological target: T3, CO in intact RBL-1 cells (Rattus norvegicus, UniProt Q63921); test: Procedure III: inhibition of CO in intact RBL-1 cells; assay type: cell-based
T3 construct: 5-LO and CO in intact RBL-1 cells; endogenous in cells; host or cells: RBL-1 (rat basophilic leukemia cells), intact
T3 sequence (Q63921 27-602): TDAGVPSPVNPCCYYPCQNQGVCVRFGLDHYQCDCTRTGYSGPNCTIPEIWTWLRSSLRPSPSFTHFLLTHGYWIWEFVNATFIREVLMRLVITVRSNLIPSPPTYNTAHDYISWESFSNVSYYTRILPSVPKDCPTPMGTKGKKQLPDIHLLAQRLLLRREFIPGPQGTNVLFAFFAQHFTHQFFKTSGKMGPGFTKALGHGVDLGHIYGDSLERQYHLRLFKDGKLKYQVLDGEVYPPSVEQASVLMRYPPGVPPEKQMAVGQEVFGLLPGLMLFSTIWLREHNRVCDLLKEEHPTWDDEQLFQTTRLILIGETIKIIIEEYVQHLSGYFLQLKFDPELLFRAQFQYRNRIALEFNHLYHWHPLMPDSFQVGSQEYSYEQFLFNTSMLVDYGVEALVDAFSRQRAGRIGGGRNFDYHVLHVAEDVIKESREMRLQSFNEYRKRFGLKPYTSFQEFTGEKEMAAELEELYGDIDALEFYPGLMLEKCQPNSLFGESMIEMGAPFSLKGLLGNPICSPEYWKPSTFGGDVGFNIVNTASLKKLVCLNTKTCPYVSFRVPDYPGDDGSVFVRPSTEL
Description: as §2, §1

| % INHIBITION 5-LO (Procedure II) [1] [%] | IC50 [1] [µM] | IC50 [2] [µM] | IC50 (CO in intact RBL-1 cells) [µM] | Structure (SMILES) |
| --- | --- | --- | --- | --- |
| 88 | 0.06 | 2.35 | 4.92 | COc1ccc(-n2nc(CCCOC(=O)N(C)O)c(Br)c2-c2ccc(Cl)cc2)cc1 [3-F] |
| 80 | 0.03 | 1.5 | 7 | COc1ccc(-n2nc(CCCOC(=O)N(O)C(C)C)c(Br)c2-c2ccc(Cl)cc2)cc1 [3-G] |

Second part, the compound before the results:

| Structure (SMILES) | % INHIBITION 5-LO (Procedure II) [1] [%] | IC50 [1] [µM] | IC50 [2] [µM] | IC50 (CO in intact RBL-1 cells) [µM] |
| --- | --- | --- | --- | --- |
| COc1ccc(-n2nc(CCCOC(=O)N(C)O)cc2-c2ccc(Cl)cc2)cc1 [3-B] | 96 | 0.12 | 3.21 | 0.42 |
| COc1ccc(-n2nc(CCCOC(=O)N(O)C(C)C)cc2-c2ccc(Cl)cc2)cc1 [3-C] | 80 | 0.03 | 1.97 | 1.23 |
| COc1ccc(-n2nc(CCCOC(=O)N(C)O)c(Cl)c2-c2ccc(Cl)cc2)cc1 [3-D] | 85 | 0.1 | 0.82 | 2.27 |
| COc1ccc(-n2nc(CCCOC(=O)N(O)C(C)C)c(Cl)c2-c2ccc(Cl)cc2)cc1 [3-E] | 86 | 0.07 | 2.8 | 12.2 |

Reference: US5387602A, “1.5-diphenyl-3-(N-hydroxycarbamoyloxyalkyl)pyrazoles” (Ortho Pharmaceutical Corporation, priority 1993, dated 1995)
